The results in this text go back to patent US20080176862A1, “New Compounds 617” (ASTRAZENECA AB, priority 2006, published 2008).

Structures can show the parent of a compound that is named as a salt.

The first assay deals with T1, human β-Secretase (soluble part, AA1-AA460; sBACE-Fc) (Homo sapiens, UniProt P56817).
T1 construct: The soluble part of the human β-Secretase (AA1-AA460) was cloned into the ASP2-Fc10-1-IRES-GFP-neoK mammalian expression vector; made in house
T1 sequence (P56817 22-460): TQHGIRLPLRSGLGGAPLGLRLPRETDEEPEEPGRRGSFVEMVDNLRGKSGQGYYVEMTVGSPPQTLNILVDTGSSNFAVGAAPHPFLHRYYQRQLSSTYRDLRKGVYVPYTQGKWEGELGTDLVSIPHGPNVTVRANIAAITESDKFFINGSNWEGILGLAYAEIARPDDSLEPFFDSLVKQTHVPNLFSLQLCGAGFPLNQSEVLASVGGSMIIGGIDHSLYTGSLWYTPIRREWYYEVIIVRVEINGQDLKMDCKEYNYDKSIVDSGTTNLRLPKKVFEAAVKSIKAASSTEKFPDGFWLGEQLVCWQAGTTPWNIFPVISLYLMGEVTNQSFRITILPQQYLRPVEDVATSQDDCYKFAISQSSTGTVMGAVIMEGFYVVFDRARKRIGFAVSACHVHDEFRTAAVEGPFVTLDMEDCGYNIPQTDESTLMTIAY
Nature of the assay: TR-FRET assay. The assay is classed as biochemical. The conditions noted are these: substrate (Europium)CEVNLDAEFK(Qsy7) 100 nM, pH 4.5, 15 min at RT. Here is the method:
The enzyme used in the IGEN Cleavage-, Fluorescent-, TR-FRET- and BiaCore assays is described as follows:
The soluble part of the human β-Secretase (AA1-AA460) was cloned into the ASP2-Fc10-1-IRES-GFP-neoK mammalian expression vector. The gene was fused to the Fc domain of IgG1 (affinity tag) and stably cloned into HEK 293 cells. Purified sBACE-Fc is stored in Tris buffer, pH 9.2 and has a purity of 95%.
Enzyme was diluted to 6 μg/mL and the substrate (Europium)[…](Qsy7) to 200 nM in reaction buffer (NaAcetate, chaps, triton x-100, EDTA pH 4.5). Compounds were diluted to the desired concentration in dimethyl sulfoxide (final dimethyl sulfoxide concentration in assay is 5%). […] Enzyme (9 μL) and 1 μL of compound in dimethyl sulfoxide was added to the plate, mixed and pre-incubated for 10 min. Substrate (10 μL) was added and the reaction proceeded in the dark for 15 min at RT. The reaction was stopped with the addition of 7 μL NaAcetate, pH 9. The fluorescence of the product was measured on a Victor II plate reader with an excitation wavelength of 340 nm and an emission wavelength of 615 nm. […] The dimethyl sulfoxide control defined the 100% activity level and 0% activity was defined by exclusion of the enzyme (using reaction buffer instead).
For the molecule `COc1cc(OS(C)(=O)=O)cc(-c2cc(C3(c4ccccc4)N=C(N)N(C)C3=O)ccc2F)c1` (centres unmarked) [Example 84, 5′-(2-Amino-1-methyl-5-oxo-4-phenyl-4,5-dihydro-1H-imidazol-4-yl)-2′-fluoro-5-methoxybiphenyl-3-yl methanesulfonate], the “IC50 (nM) in TR-FRET assay” value is “inactive”.

Staying with this assay, now noted: substrate (Europium)CEVNLDAEFK(Qsy7) 100 nM, pH 4.5, 15 min at RT; read-out: IC50 (nM) in TR-FRET assay.
`COc1ccnc(-c2cc(C3(c4ccc(OS(C)(=O)=O)cc4)N=C(N)N(C)C3=O)ccc2F)n1` (centres unmarked) [Example 6, 4-{2-Amino-4-[4-fluoro-3-(4-methoxypyrimidin-2-yl)phenyl]-1-methyl-5-oxo-4,5-dihydro-1H-imidazol-4-yl}phenyl methanesulfonate 0.25 acetate]: the concentration for half-maximal inhibition (IC50) was determined as 834 nM. With `COc1ccnc(-c2cc(C3(c4cccc(OS(C)(=O)=O)c4)N=C(N)N(C)C3=O)ccc2F)n1` (centres unmarked) [Example 7, 3-{2-Amino-4-[4-fluoro-3-(4-methoxypyrimidin-2-yl)phenyl]-1-methyl-5-oxo-4,5-dihydro-1H-imidazol-4-yl}phenyl methanesulfonate 0.5 acetate], the IC50 was determined as 1200 nM. Take `COc1ccc(C2(c3ccc(F)c(-c4cncnc4)c3)N=C(N)N(C)C2=O)cc1OS(=O)(=O)C(F)(F)F` (centres unmarked) [Example 14, 5-[2-Amino-4-(4-fluoro-3-pyrimidin-5-ylphenyl)-1-methyl-5-oxo-4,5-dihydro-[H-imidazol-4-yl]-2-methoxyphenyl trifluoromethanesulfonate 0.5 acetate]: the IC50 was found to be 59 nM. On to `COc1ccc(F)c(-c2cncc(C3(c4ccc(OS(C)(=O)=O)cc4)N=C(N)N(C)C3=O)c2)c1` (centres unmarked) [Example 21, 4-{2-Amino-4-[5-(2-fluoro-5-methoxyphenyl)pyridin-3-yl]-1-methyl-5-oxo-4,5-dihydro-1H-imidazol-4-yl}phenyl methanesulfonate 0.5 acetate], for which the IC50 came out at 1910 nM. Still for that read-out and setting: next, `CN1C(=O)C(c2ccc(OS(C)(=O)=O)cc2)(c2cncc(-c3cccnc3F)c2)N=C1N` (centres unmarked) [Example 22, 4-[2-amino-4-(2′-fluoro-3,3′-bipyridin-5-yl)-1-methyl-5-oxo-4,5-dihydro-1H-imidazol-4-yl]phenyl methanesulfonate 0.5 acetate]: 1650 nM. As to `CN1C(=O)C(c2ccc(OS(C)(=O)=O)cc2)(c2ccnc(-c3cccnc3F)c2)N=C1N` (centres unmarked) [Example 29, 4-[2-Amino-4-(2′-fluoro-2,3′-bipyridin-4-yl)-1-methyl-5-oxo-4,5-dihydro-1H-imidazol-4-yl]phenyl methanesulfonate 0.25 acetate], the IC50 was determined as 387 nM. As for `CN1C(=O)C(c2ccc(OS(C)(=O)=O)cc2)(c2ccnc(-c3cccc(C#N)c3)c2)N=C1N` (centres unmarked) [Example 34, 4-{2-Amino-4-[2-(3-cyanophenyl)pyridin-4-yl]-1-methyl-5-oxo-4,5-dihydro-1H-imidazol-4-yl}phenyl methanesulfonate 0.25 acetate], the IC50 was 924 nM. Take `COc1cccc(-c2cc(C3(c4ccc(OS(C)(=O)=O)cc4)N=C(N)N(C)C3=O)ccn2)c1` (centres unmarked) [Example 39, 4-{2-Amino-4-[2-(3-methoxyphenyl)pyridin-4-yl]-1-methyl-5-oxo-4,5-dihydro-1H-imidazol-4-yl}phenyl methanesulfonate 0.25 acetate]: the IC50 amounted to 365 nM. `COc1ccc(C2(c3cccc(-c4cc(OC)cc(OS(C)(=O)=O)c4)c3)N=C(N)N(C)C2=O)cc1` (centres unmarked) [Example 57, 3′-[2-Amino-4-(4-methoxyphenyl)-1-methyl-5-oxo-4,5-dihydro-1H-imidazol-4-yl]-5-methoxybiphenyl-3-yl methanesulfonate]: the 50% inhibitory concentration (IC50) stood at 34 nM.

As to `COc1cc(OS(C)(=O)=O)cc(-c2cccc(C3(c4ccc(OC(F)(F)F)cc4)N=C(N)N(C)C3=O)c2)c1` (centres unmarked) [Example 58, 3′-{2-Amino-1-methyl-5-oxo-4-[4-(trifluoromethoxy)phenyl]-4,5-dihydro-1H-imidazol-4-yl}-5-methoxybiphenyl-3-ylmethanesulfonate], the IC50 was determined as 81 nM. For `CN1C(=O)C(c2ccc(OC(F)(F)F)cc2)(c2cccc(-c3cc(Cl)cc(OS(C)(=O)=O)c3)c2)N=C1N` (centres unmarked) [Example 59, 3′-{2-Amino-1-methyl-5-oxo-4-[4-(trifluoromethoxy)phenyl]-4,5-dihydro-1H-imidazol-4-yl}-5-chlorobiphenyl-3-ylmethanesulfonate], the IC50 stood at 128 nM. `COc1cc(OS(C)(=O)=O)cc(-c2cccc(C3(c4ccc(OC)c(C(F)(F)F)c4)N=C(N)N(C)C3=O)c2)c1` (centres unmarked) [Example 60, 3′-{2-Amino-4-[4-methoxy-3-(trifluoromethyl)phenyl]-1-methyl-5-oxo-4,5-dihydro-1H-imidazol-4-yl}-5-methoxybiphenyl-3-yl methanesulfonate]: the IC50 amounted to 25 nM. Turning to `COc1ccc(C2(c3cccc(-c4cc(Cl)cc(OS(C)(=O)=O)c4)c3)N=C(N)N(C)C2=O)cc1C(F)(F)F` (centres unmarked) [Example 61, 3′-{2-Amino-4-[4-methoxy-3-(trifluoromethyl)phenyl]-1-methyl-5-oxo-4,5-dihydro-1H-imidazol-4-yl}-5-chlorobiphenyl-3-ylmethanesulfonate], the IC50 was found to be 37 nM. On to `COc1cc(OS(C)(=O)=O)cc(-c2cccc(C3(c4ccc(OC)c(C)c4)N=C(N)N(C)C3=O)c2)c1` (centres unmarked) [Example 62, 3′-[2-Amino-4-(4-methoxy-3-methylphenyl)-1-methyl-5-oxo-4,5-dihydro-1H-imidazol-4-yl]-5-methoxybiphenyl-3-ylmethanesulfonate 0.25acetate], for which the IC50 turned out to be 25 nM.

As to `COc1cc(OS(C)(=O)=O)cc(-c2cccc(C3(c4ccc(OC(F)F)cc4)N=C(N)N(C)C3=O)c2)c1` (centres unmarked) [Example 63, 3′-{2-Amino-4-[4-(difluoromethoxy)phenyl]-1-methyl-5-oxo-4,5-dihydro-1H-imidazol-4-yl}-5-methoxybiphenyl-3-yl methanesulfonate 0.25acetate], the IC50 is 18 nM.

For the molecule `CN1C(=O)C(c2ccc(OC(F)F)cc2)(c2cccc(-c3cc(Cl)cc(OS(C)(=O)=O)c3)c2)N=C1N` (centres unmarked) [Example 64, 3′-{2-Amino-4-[4-(difluoromethoxy)phenyl]-1-methyl-5-oxo-4,5-dihydro-1H-imidazol-4-yl}-5-chlorobiphenyl-3-ylmethanesulfonate], the concentration for half-maximal inhibition (IC50) was 28 nM. Take `COc1cc(OS(C)(=O)=O)cc(-c2cc(C3(c4ccc(OC(F)F)cc4)N=C(N)N(C)C3=O)ccc2F)c1` (centres unmarked) [Example 69, 5′-{2-Amino-4-[4-(difluoromethoxy)phenyl]-1-methyl-5-oxo-4,5-dihydro-1H-imidazol-4-yl}-2′-fluoro-5-methoxybiphenyl-3-yl methanesulfonate hydrochloride]: the IC50 turned out to be 23 nM. For the molecule `CN1C(=O)C(c2ccc(OC(F)F)cc2)(c2ccc(F)c(-c3cc(C#N)cc(OS(C)(=O)=O)c3)c2)N=C1N` (centres unmarked) [Example 70, 5′-{2-Amino-4-[4-(difluoromethoxy)phenyl]-1-methyl-5-oxo-4,5-dihydro-1H-imidazol-4-yl}-5-cyano-2′-fluorobiphenyl-3-yl methanesulfonate hydrochloride], the IC50 was determined as 2420 nM.

`COc1cc(C#N)cc(-c2cc(C3(c4ccc(OS(C)(=O)=O)cc4)N=C(N)N(C)C3=O)ccc2F)c1` (centres unmarked) [Example 71, 4-[2-Amino-4-(3′-cyano-6-fluoro-5′-methoxybiphenyl-3-yl)-1-methyl-5-oxo-4,5-dihydro-1H-imidazol-4-yl]phenyl methanesulfonate hydrochloride]: the IC50 was found to be 41 nM. With `CN1C(=O)C(c2ccc(OC(F)F)cc2)(c2ccc(F)c(-c3cncc(OS(C)(=O)=O)c3)c2)N=C1N` (centres unmarked) [Example 73, 5-(5-{2-Amino-4-[4-(difluoromethoxy)phenyl]-1-methyl-5-oxo-4,5-dihydro-1H-imidazol-4-yl}-2-fluorophenyl)pyridin-3-yl methanesulfonate hydrochloride], the IC50 is 54 nM. Still for that read-out and setting: under `CN1C(=O)C(c2ccc(OS(C)(=O)=O)cc2)(c2ccc(F)c(/C=C/C3CC3)c2)N=C1N` (centres unmarked) [Example 78, 4-(2-Amino-4-{3-[(E)-2-cyclopropylvinyl]-4-fluorophenyl}-1-methyl-5-oxo-4,5-dihydro-1H-imidazol-4-yl)phenyl methanesulfonate] stands 725 nM; under `CN1C(=O)C(c2ccc(OS(C)(=O)=O)cc2)(c2ccc(F)c(CCC3CC3)c2)N=C1N` (centres unmarked) [Example 79, 4-{2-Amino-4-[3-(2-cyclopropylethyl)-4-fluorophenyl]-1-methyl-5-oxo-4,5-dihydro-1H-imidazol-4-yl}phenyl methanesulfonate], 552 nM; under `COc1cc(OS(C)(=O)=O)cc(-c2cc(C3(c4ccccc4)N=C(N)N(C)C3=O)ccc2F)c1` (centres unmarked) [Example 84, 5′-(2-Amino-1-methyl-5-oxo-4-phenyl-4,5-dihydro-1H-imidazol-4-yl)-2′-fluoro-5-methoxybiphenyl-3-yl methanesulfonate], 159 nM. On the same count and under the same terms, next, `CN1C(=O)C(c2cccc(OS(C)(=O)=O)c2)(c2ccc(F)c(-c3cc(Cl)cnc3F)c2)N=C1N` (centres unmarked) [Example 86, 3-{2-Amino-4-[3-(5-chloro-2-fluoropyridin-3-yl)-4-fluorophenyl]-1-methyl-5-oxo-4,5-dihydro-1H-imidazol-4-yl}phenyl methanesulfonate]: 292 nM; `CN1C(=O)C(c2cccc(OS(C)(=O)=O)c2)(c2ccc(F)c(-c3cncc(F)c3)c2)N=C1N` (centres unmarked) [Example 87, 3-{2-Amino-4-[4-fluoro-3-(5-fluoropyridin-3-yl)phenyl]-1-methyl-5-oxo-4,5-dihydro-1H-imidazol-4-yl}phenylmethanesulfonate]: 494 nM.
